Measurements published in ChEMBL document CHEMBL4507278 (2021).

Assays:
[1] = target: Mitogen-activated protein kinase 10 (Homo sapiens) (UniProt P53779); settings: Compound concentration 1000.0 nM
[2] = target: Serine/threonine-protein kinase Nek6 (Homo sapiens) (UniProt Q9HC98); settings: Compound concentration 1000.0 nM
[3] = target: Cyclin-dependent kinase 11A (Homo sapiens) (UniProt Q9UQ88); settings: Compound concentration 1000.0 nM
[4] = target: Ribosomal protein S6 kinase alpha-6 (Homo sapiens) (UniProt Q9UK32); settings: Compound concentration 1000.0 nM
[5] = tested on: Tyrosine-protein kinase ABL1 (Homo sapiens), P00519 [E255K]; settings: Compound concentration 1000.0 nM
[6] = tested on: Tyrosine-protein kinase ABL1 (Homo sapiens), P00519 [Q252H]; settings: Compound concentration 1000.0 nM
[7] = target: Non-receptor tyrosine-protein kinase TYK2 (Homo sapiens) (UniProt P29597); settings: Compound concentration 1000.0 nM
[8] = target: Calcium/calmodulin-dependent protein kinase kinase 2 (Homo sapiens) (UniProt Q96RR4); settings: Compound concentration 1000.0 nM
[9] = target: Histamine H4 receptor (Homo sapiens) (UniProt Q9H3N8); settings: Compound concentration 10.0 uM
[10] = target: Mitogen-activated protein kinase 4 (Homo sapiens) (UniProt P31152); settings: Compound concentration 1000.0 nM
[11] = target: Mitogen-activated protein kinase kinase kinase 1 (Homo sapiens) (UniProt Q13233); settings: Compound concentration 1000.0 nM
[12] = target: Ephrin type-B receptor 3 (Homo sapiens) (UniProt P54753); settings: Compound concentration 1000.0 nM
[13] = target: Ribosomal protein S6 kinase alpha-5 (Homo sapiens) (UniProt O75582); settings: Compound concentration 1000.0 nM
[14] = target: T1, 5-hydroxytryptamine receptor 3A (Homo sapiens) (UniProt P46098); settings: Compound concentration 10.0 uM
T1 sequence (whole entry): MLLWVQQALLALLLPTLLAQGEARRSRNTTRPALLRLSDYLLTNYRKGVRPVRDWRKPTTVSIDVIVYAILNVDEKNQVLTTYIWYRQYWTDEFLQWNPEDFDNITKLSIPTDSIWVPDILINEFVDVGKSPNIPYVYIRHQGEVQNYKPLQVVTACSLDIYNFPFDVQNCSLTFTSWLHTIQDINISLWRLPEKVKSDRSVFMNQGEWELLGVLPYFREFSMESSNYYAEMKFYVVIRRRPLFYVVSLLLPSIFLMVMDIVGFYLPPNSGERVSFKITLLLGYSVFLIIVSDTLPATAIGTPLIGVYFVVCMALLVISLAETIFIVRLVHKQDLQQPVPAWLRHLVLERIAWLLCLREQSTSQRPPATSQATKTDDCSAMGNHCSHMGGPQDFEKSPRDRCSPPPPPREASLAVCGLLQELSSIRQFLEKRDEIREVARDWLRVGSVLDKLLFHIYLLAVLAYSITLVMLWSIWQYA

[15] = target: Ephrin type-A receptor 4 (Homo sapiens) (UniProt P54764); settings: Compound concentration 1000.0 nM
[16] = target: Receptor-interacting serine/threonine-protein kinase 1 (Homo sapiens) (UniProt Q13546); settings: Compound concentration 1000.0 nM
[17] = target: Mitogen-activated protein kinase 7 (Homo sapiens) (UniProt Q13164); settings: Compound concentration 1000.0 nM
[18] = target: Homeodomain-interacting protein kinase 4 (Homo sapiens) (UniProt Q8NE63); settings: Compound concentration 1000.0 nM
[19] = target: Serine/threonine-protein kinase 32A (Homo sapiens) (UniProt Q8WU08); settings: Compound concentration 1000.0 nM
[20] = target: Ribosomal protein S6 kinase alpha-6 (Homo sapiens) (UniProt Q9UK32); settings: Compound concentration 1000.0 nM; remark: listed apart in the source
[21] = target: Casein kinase II subunit alpha' (Homo sapiens) (UniProt P19784); settings: Compound concentration 1000.0 nM
[22] = target: Serine/threonine-protein kinase 4 (Homo sapiens) (UniProt Q13043); settings: Compound concentration 1000.0 nM
[23] = target: Ribosomal protein S6 kinase alpha-4 (Homo sapiens) (UniProt O75676); settings: Compound concentration 1000.0 nM
[24] = target: Serine/threonine-protein kinase pim-2 (Homo sapiens) (UniProt Q9P1W9); settings: Compound concentration 1000.0 nM
[25] = target: Serine/threonine-protein kinase LATS1 (Homo sapiens) (UniProt O95835); settings: Compound concentration 1000.0 nM
[26] = target: Serine/threonine-protein kinase RIO2 (Homo sapiens) (UniProt Q9BVS4); settings: Compound concentration 1000.0 nM
[27] = target: Protein kinase C iota type (Homo sapiens) (UniProt P41743); settings: Compound concentration 1000.0 nM
[28] = target: Mitogen-activated protein kinase kinase kinase 6 (Homo sapiens) (UniProt O95382); settings: Compound concentration 1000.0 nM
[29] = target: Cyclin-dependent kinase 14 (Homo sapiens) (UniProt O94921); settings: Compound concentration 1000.0 nM
[30] = tested on: Tyrosine-protein kinase ABL1 (Homo sapiens), P00519 [F317L]; settings: Compound concentration 1000.0 nM
[31] = target: Tyrosine-protein kinase receptor Tie-1 (Homo sapiens) (UniProt P35590); settings: Compound concentration 1000.0 nM
[32] = target: Serine/threonine-protein kinase Sgk1 (Homo sapiens) (UniProt O00141); settings: Compound concentration 1000.0 nM
[33] = target: Serine/threonine-protein kinase DCLK3 (Homo sapiens) (UniProt Q9C098); settings: Compound concentration 1000.0 nM
[34] = target: Serine/threonine-protein kinase 25 (Homo sapiens) (UniProt O00506); settings: Compound concentration 1000.0 nM
[35] = target: Serine/threonine-protein kinase PAK 1 (Homo sapiens) (UniProt Q13153); settings: Compound concentration 1000.0 nM
[36] = tested on: Phosphatidylinositol 4,5-bisphosphate 3-kinase catalytic subunit alpha isoform (Homo sapiens), P42336 [I800L]; settings: Compound concentration 1000.0 nM
[37] = target: Phosphorylase b kinase regulatory subunit alpha, liver isoform (Homo sapiens) (UniProt P46019); settings: Compound concentration 1000.0 nM
[38] = target: STE20/SPS1-related proline-alanine-rich protein kinase (Homo sapiens) (UniProt Q9UEW8); settings: Compound concentration 1000.0 nM
[39] = target: Serine/threonine-protein kinase PLK4 (Homo sapiens) (UniProt O00444); settings: Compound concentration 1000.0 nM

Chain of Ribosomal protein S6 kinase alpha-6 (Homo sapiens) (Q9UK32 whole entry): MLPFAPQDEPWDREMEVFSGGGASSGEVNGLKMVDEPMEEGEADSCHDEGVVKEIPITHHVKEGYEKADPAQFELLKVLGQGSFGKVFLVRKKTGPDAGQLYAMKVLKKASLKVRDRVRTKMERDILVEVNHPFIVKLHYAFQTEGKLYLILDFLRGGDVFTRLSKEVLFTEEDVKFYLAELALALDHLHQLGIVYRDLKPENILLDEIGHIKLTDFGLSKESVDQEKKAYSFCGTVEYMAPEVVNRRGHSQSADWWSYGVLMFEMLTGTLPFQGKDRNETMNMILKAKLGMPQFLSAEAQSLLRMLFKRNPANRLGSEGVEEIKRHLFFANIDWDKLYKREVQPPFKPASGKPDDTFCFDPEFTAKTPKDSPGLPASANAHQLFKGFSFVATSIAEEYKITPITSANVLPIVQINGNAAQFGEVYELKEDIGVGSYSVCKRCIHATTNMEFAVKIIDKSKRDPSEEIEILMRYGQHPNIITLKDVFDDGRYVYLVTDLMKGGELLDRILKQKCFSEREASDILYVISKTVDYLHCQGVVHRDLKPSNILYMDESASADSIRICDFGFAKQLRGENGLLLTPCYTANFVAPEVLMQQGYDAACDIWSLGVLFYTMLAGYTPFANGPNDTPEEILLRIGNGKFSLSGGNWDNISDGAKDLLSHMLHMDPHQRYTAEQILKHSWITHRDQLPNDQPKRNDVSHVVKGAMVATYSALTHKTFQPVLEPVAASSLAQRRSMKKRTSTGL
Chain of Mitogen-activated protein kinase kinase kinase 1 (Homo sapiens) (Q13233 whole entry): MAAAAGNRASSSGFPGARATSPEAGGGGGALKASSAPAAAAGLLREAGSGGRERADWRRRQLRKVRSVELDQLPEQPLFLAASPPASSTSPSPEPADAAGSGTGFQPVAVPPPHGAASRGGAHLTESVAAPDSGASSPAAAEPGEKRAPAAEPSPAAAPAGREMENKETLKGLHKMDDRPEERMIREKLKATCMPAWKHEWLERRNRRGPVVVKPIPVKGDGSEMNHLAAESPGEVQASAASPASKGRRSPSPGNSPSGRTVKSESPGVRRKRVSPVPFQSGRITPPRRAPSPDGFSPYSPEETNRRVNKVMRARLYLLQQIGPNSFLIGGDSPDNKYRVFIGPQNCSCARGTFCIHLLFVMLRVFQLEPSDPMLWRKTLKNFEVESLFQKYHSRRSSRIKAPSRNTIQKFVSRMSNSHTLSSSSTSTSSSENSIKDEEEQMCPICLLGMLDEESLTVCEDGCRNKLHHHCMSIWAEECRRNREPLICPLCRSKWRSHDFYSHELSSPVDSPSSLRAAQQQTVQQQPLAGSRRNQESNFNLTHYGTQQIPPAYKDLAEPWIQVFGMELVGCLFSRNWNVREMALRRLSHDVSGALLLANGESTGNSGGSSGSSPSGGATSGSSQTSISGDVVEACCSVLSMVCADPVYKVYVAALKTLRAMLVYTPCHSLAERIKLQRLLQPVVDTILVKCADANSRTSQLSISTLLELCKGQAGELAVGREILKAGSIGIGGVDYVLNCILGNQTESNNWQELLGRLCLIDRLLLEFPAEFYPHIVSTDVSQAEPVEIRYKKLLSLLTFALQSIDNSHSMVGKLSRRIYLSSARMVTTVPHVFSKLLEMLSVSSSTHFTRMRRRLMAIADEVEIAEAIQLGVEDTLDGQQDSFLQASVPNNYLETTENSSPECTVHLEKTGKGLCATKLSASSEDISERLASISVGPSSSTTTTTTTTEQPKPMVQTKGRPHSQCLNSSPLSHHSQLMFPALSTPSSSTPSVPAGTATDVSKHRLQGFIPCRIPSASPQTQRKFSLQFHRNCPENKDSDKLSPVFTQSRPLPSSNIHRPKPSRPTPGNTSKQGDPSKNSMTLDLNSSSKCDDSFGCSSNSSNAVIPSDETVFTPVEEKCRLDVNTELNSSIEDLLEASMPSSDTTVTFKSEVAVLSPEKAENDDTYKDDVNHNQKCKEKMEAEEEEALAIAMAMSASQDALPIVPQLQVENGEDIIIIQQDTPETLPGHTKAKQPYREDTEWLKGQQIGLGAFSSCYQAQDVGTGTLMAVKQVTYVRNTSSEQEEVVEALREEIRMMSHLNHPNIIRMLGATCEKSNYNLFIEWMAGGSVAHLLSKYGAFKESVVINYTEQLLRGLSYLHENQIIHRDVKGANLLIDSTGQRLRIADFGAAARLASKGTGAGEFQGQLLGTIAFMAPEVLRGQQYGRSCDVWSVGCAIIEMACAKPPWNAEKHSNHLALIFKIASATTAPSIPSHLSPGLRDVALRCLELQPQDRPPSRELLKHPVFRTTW
Chain of Serine/threonine-protein kinase 32A (Homo sapiens) (Q8WU08 whole entry): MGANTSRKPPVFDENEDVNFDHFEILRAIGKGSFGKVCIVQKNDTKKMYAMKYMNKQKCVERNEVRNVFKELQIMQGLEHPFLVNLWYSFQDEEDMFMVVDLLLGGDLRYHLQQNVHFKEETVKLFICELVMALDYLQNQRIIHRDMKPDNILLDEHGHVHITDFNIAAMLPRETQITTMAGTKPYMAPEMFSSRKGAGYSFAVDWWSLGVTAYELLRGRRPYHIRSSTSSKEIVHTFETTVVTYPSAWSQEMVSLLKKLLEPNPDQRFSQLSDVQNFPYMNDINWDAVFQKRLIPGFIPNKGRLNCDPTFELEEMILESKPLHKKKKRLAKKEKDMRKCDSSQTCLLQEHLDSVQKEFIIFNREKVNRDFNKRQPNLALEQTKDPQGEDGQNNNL
Chain of Cyclin-dependent kinase 11A (Homo sapiens) (Q9UQ88 whole entry): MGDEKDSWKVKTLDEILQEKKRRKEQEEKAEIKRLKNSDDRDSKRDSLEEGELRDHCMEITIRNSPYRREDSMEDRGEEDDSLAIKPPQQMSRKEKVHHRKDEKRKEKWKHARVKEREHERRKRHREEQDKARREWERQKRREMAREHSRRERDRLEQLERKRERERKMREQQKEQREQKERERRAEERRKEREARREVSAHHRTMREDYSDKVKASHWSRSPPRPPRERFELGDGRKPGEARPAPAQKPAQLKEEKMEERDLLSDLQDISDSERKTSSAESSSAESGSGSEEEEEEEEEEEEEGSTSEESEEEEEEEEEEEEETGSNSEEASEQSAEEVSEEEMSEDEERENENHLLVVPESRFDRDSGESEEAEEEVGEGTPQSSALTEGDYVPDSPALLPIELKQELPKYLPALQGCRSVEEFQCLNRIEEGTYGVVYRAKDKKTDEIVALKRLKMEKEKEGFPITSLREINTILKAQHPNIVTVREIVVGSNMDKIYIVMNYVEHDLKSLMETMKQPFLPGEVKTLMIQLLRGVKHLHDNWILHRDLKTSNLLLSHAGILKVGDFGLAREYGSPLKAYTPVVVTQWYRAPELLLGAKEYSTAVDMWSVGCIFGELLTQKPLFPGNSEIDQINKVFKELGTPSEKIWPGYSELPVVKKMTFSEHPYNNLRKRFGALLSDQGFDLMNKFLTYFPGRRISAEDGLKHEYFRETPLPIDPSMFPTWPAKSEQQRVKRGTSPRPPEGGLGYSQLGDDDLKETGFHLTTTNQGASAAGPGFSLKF
Chain of Ribosomal protein S6 kinase alpha-4 (Homo sapiens) (O75676 whole entry, looked up): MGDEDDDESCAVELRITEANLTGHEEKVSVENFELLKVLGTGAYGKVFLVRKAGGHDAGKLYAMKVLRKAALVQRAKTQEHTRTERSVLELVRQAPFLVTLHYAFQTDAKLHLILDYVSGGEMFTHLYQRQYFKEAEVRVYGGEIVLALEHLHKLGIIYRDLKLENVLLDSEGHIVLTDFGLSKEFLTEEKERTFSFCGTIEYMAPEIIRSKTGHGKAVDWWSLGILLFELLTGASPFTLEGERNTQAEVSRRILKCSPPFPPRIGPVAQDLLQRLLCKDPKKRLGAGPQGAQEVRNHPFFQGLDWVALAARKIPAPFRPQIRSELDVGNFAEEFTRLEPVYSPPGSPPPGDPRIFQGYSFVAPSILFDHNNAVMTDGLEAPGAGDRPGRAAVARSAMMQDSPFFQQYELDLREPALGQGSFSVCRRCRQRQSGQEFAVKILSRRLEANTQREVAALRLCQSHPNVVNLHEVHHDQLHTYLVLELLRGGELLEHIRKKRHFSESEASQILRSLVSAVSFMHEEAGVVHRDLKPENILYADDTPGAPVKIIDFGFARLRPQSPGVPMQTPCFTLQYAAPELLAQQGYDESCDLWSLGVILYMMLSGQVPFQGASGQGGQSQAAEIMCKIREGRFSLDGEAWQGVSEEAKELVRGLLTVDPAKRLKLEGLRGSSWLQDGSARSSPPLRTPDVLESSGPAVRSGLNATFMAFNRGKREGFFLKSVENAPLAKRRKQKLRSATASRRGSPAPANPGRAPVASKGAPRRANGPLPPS
Chain of Calcium/calmodulin-dependent protein kinase kinase 2 (Homo sapiens) (Q96RR4 2-588 limits assumed): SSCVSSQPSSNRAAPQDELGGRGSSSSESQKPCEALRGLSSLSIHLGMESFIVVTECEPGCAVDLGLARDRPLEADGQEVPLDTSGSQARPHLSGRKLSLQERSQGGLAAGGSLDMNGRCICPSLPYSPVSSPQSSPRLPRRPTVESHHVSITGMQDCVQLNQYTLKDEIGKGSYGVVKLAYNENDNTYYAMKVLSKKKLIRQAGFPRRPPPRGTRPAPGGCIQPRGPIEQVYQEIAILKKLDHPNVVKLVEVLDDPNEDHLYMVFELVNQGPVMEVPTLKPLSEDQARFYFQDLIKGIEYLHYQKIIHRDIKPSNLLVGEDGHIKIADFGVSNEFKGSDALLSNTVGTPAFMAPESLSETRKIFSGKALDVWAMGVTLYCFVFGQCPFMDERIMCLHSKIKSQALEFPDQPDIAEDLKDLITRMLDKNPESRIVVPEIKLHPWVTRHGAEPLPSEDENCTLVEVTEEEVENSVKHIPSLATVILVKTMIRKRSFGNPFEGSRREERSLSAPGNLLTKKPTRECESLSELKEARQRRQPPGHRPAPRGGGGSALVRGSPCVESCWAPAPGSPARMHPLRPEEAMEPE

CS(=O)(=O)NCC[C@H](NC(=O)c1cncc2c1cnn2-c1ccc(F)cc1)c1ccnc(S(C)(=O)=O)c1 [BI 9307]
inactive: residual activity [1] 100% | residual activity [2] 100% | residual activity [3] 100% | residual activity [4] 99% | residual activity [5] 93% | residual activity [6] 100% | residual activity [7] 100% | residual activity [8] 100% | inhibition [9] -0.39% | residual activity [10] 100% | residual activity [11] 100% | residual activity [12] 100% | residual activity [13] 100% | inhibition [14] 10.2% | residual activity [15] 100% | residual activity [16] 99% | residual activity [17] 100% | residual activity [18] 100% | residual activity [19] 74% | residual activity [20] 100% | residual activity [21] 100% | residual activity [22] 100% | residual activity [23] 85% | residual activity [24] 86% | residual activity [25] 100% | residual activity [26] 100% | residual activity [27] 100% | residual activity [28] 100% | residual activity [29] 100% | residual activity [30] 69% | residual activity [31] 100% | residual activity [32] 100% | residual activity [33] 93% | residual activity [34] 78% | residual activity [35] 88% | residual activity [36] 61% | residual activity [37] 100% | residual activity [38] 80% | residual activity [39] 89%

CS(=O)(=O)c1cc(C2(NC(=O)c3cncc4c3cnn4-c3ccc(F)cc3)CC2)ccn1 [BI 639667]
inactive: residual activity [1] 100% | residual activity [2] 100% | residual activity [3] 99% | residual activity [4] 97% | residual activity [5] 100% | residual activity [6] 100% | residual activity [7] 100% | residual activity [8] 75% | inhibition [9] 1.36% | residual activity [10] 79% | residual activity [11] 100% | residual activity [12] 100% | residual activity [13] 61% | inhibition [14] 12.9% | residual activity [15] 100% | residual activity [16] 100% | residual activity [17] 75% | residual activity [18] 100% | residual activity [19] 71% | residual activity [20] 64% | residual activity [21] 80% | residual activity [22] 77% | residual activity [23] 85% | residual activity [24] 100% | residual activity [25] 98% | residual activity [26] 94% | residual activity [27] 100% | residual activity [28] 100% | residual activity [29] 100% | residual activity [30] 68% | residual activity [31] 73% | residual activity [32] 97% | residual activity [33] 100% | residual activity [34] 100% | residual activity [35] 100% | residual activity [36] 68% | residual activity [37] 100% | residual activity [38] 58% | residual activity [39] 85%
